Results as given in article PMC10974768 (Toxins, 2024).
Read-outs that look alike come from different tables or passages of the source.

Tests used:
[1] = tested on: CYP2C8; settings: cited from earlier work
[2] = in vivo; format: in vivo, broiler chickens (Ross 308); settings: for TIA concentration in chicken plasma, Treatment group: AFB1 diet 20 µg/kg feed for 2 weeks
[3] = tested on: CYP3A4; settings: read-out: IC50 for CYP3A4; human liver microsomes; cited from earlier work
[4] = tested on: CYP3A4; test: in vitro; settings: chicken, pH 7.4
Experimental: (§1) A cocktail-approach for elucidating the metabolites profiling and CYP450 inhibition was conducted as in Lin et al. with minor changes. The incubation mixture contained 50 μL of 0.2 mg/mL of CLM, 10 μL of 0.1 M phosphate buffer (pH 7.4), 40 μL of 1 mM NADPH and six probe substrates with a total volume of 200 μL. The specific probe substrates used for each CYP450 isoenzyme in the incubation mixture were as follows: PH (CYP1A2), BP (CYP2B6), CLN (CYP2E1), TBD (CYP2C9), CAN (CYP2A6), and MDZ (CYP3A4). Probes substrates were dissolved in methanol as stock solution (1 mg/mL). All of them were diluted to the final concentrations (see Supplemental Materials) with incubation buffer and the percentage of organic solvent in the final incubation volume was below 1% (v/v). Briefly, the mixture was preincubated in a thermoshaker (Biosan, Geraardsbergen, Belgium) for 5 min at 37 °C prior to the initiation of the reaction with NADPH.4Na. After incubation, the mixture was terminated by 400 μL ice-cold acetonitrile. […] A volume of 5 µL of supernatant was analysed using UHPLC-MS/MS.

[5] = tested on: CYP1A2, CYP2B6, CYP2E1, CYP2C9, CYP2A6, CYP3A4 (summary bound over all); test: in vitro; settings: chicken, microsomes, pH 7.4
Experimental: as §1

[6] = tested on: CYP2E1; test: in vitro; settings: chicken, pH 7.4
Experimental: as §1

[7] = tested on: CYP1A2; test: in vitro; settings: chicken, microsomes, pH 7.4
Experimental: as §1

[8] = tested on: CYP2B6; test: in vitro; settings: chicken, microsomes, pH 7.4
Experimental: as §1

[9] = tested on: CYP2C9; test: in vitro; settings: chicken, microsomes, pH 7.4
Experimental: as §1

[10] = tested on: CYP2A6; test: in vitro; settings: chicken, microsomes, pH 7.4
Experimental: as §1

[11] = tested on: broilers; settings: AFB1 and TIA co-administrated
[12] = tested on: CYP2C8; settings: cited from earlier work; remark: listed apart in the source
[13] = tested on: CYP3A; settings: chickens; doses of 25 and 125 mg/kg body weight; cited from earlier work
[14] = chickens exposed to AFB1 (750 µg/kg); nonsignificant; cited from earlier work
[15] = tested on: CYP1A, CYP2A, CYP2C, CYP2B, CYP2E and CYP3A in porcine liver microsomes; settings: concentration of 3 μM; cited from earlier work
[16] = AFB1 diet 20 µg/kg feed for 2 weeks vs control, TIA oral 25 mg/kg BW, p < 0.01
[17] = TIA oral bolus 25 mg/kg BW, chickens not pretreated with AFB1 (control feed for 2 weeks), n = 9, mean ± SD

## CC1(C)S[C@@H]2[C@H](NC(=O)[C@H](N)c3ccc(O)cc3)C(=O)N2[C@H]1C(=O)O [Amoxicillin]
[1]
  IC50: 830 µM

## C=C[C@]1(C)C[C@@H](OC(=O)CSCCN(CC)CC)[C@]2(C)[C@H](C)CC[C@]3(CCC(=O)[C@H]32)[C@@H](C)[C@@H]1O [TIA, tiamulin]
[2]; 0.25 h after oral TIA 25 mg/kg BW, mean ± SD
  TIA concentration in chicken plasma, Treatment group: 134 ± 71.5 ng/mL
[2]; 0.50 h after oral TIA 25 mg/kg BW, mean ± SD
  TIA concentration in chicken plasma, Treatment group: 83.7 ± 40.2 ng/mL
[2]; 1 h after oral TIA 25 mg/kg BW, mean ± SD
  TIA concentration in chicken plasma, Treatment group: 76.7 ± 40.2 ng/mL
[2]; 2 h after oral TIA 25 mg/kg BW, mean ± SD
  TIA concentration in chicken plasma, Treatment group: 91.0 ± 61.2 ng/mL
[2]; 3 h after oral TIA 25 mg/kg BW, mean ± SD
  TIA concentration in chicken plasma, Treatment group: 73.6 ± 32.9 ng/mL
[2]; 4 h after oral TIA 25 mg/kg BW, mean ± SD
  TIA concentration in chicken plasma, Treatment group: 29.6 ± 13.8 ng/mL
[2]; 6 h after oral TIA 25 mg/kg BW, mean ± SD
  TIA concentration in chicken plasma, Treatment group: 10.8 ± 3.6 ng/mL
[2]; 8 h after oral TIA 25 mg/kg BW, mean ± SD
  TIA concentration in chicken plasma, Treatment group: 10.4 ± 3.7 ng/mL
[2]; 12 h after oral TIA 25 mg/kg BW, mean ± SD
  TIA concentration in chicken plasma, Treatment group: 9.60 ± 3.0 ng/mL
[2]; 24 h after oral TIA 25 mg/kg BW, mean ± SD
  TIA concentration in chicken plasma, Treatment group: 9.50 ± 3.3 ng/mL
[2]; AFB1 diet 20 µg/kg feed for 2 weeks vs control, TIA oral 25 mg/kg BW
  increase of Cmax of TIA by AFB1 exposure: 155%
[2]; [16]
  CL_F_obs of TIA in AFB1-exposed group lower than in the control group: 63%
  Vd_F_obs of TIA in AFB1-exposed group lower than in the control group: 57%
  increase of AUClast of TIA by AFB1 exposure: 167%
[2]; [17]
  Tmax, Control: 0.4 ± 0.2 h
  Vd_F_obs, Control: 715.1 ± 228.45 L/kg
[2]; TIA oral bolus 25 mg/kg BW, chickens pretreated with AFB1 contaminated diet (20 µg/kg feed for 2 weeks), n = 8, mean ± SD
  Vd_F_obs, Treatment: 407.1 ± 142.5 L/kg
[2]; male, Ross 308, in vivo, po, 25 mg/kg, TIA oral bolus 25 mg/kg BW, chickens not pretreated with AFB1 (control feed for 2 weeks), last sampling point 180 h, n = 9, mean ± SD, read-out: AUClast, Control
  AUC(0-t): 294 ± 63.3 ng·h/mL
[2]; male, Ross 308, in vivo, po, 25 mg/kg, TIA oral bolus 25 mg/kg BW, chickens not pretreated with AFB1 (control feed for 2 weeks), n = 9, mean ± SD, read-out: AUCINF_obs, Control
  AUC(0-inf): 357 ± 69.6 ng·h/mL
[2]; male, Ross 308, in vivo, po, 25 mg/kg, TIA oral bolus 25 mg/kg BW, chickens not pretreated with AFB1 (control feed for 2 weeks), n = 9, mean ± SD, read-out: CL_F_obs, Control (converted)
  CL/F: 1200 mL/min/kg
[2]; male, Ross 308, in vivo, po, 25 mg/kg, TIA oral bolus 25 mg/kg BW, chickens not pretreated with AFB1 (control feed for 2 weeks), n = 9, mean ± SD, read-out: Cmax, Control
  Cmax: 89.9 ± 45.9 ng/mL
[2]; male, Ross 308, in vivo, po, 25 mg/kg, TIA oral bolus 25 mg/kg BW, chickens not pretreated with AFB1 (control feed for 2 weeks), n = 9, mean ± SD, read-out: MRTlast, Control
  MRT last: 6.8 ± 1.4 h
[2]; male, Ross 308, in vivo, po, 25 mg/kg, TIA oral bolus 25 mg/kg BW, chickens not pretreated with AFB1 (control feed for 2 weeks), n = 9, mean ± SD, read-out: T1/2λz, Control (converted)
  half-life: 7 ± 2.9 h
[2]; male, Ross 308, in vivo, po, 25 mg/kg, TIA oral bolus 25 mg/kg BW, chickens not pretreated with AFB1 (control feed for 2 weeks), n = 9, mean ± SD, read-out: Tmax, Control
  Tmax: 0.44 h
[2]; male, Ross 308, in vivo, po, 25 mg/kg, TIA oral bolus 25 mg/kg BW, chickens pretreated with AFB1 contaminated diet (20 µg/kg feed for 2 weeks), n = 8, mean ± SD, read-out: AUCINF_obs, Treatment
  AUC(0-inf): 586 ± 174 ng·h/mL
[2]; male, Ross 308, in vivo, po, 25 mg/kg, TIA oral bolus 25 mg/kg BW, chickens pretreated with AFB1 contaminated diet (20 µg/kg feed for 2 weeks), n = 8, mean ± SD, read-out: CL_F_obs, Treatment (converted)
  CL/F: 763 mL/min/kg
[2]; male, Ross 308, in vivo, po, 25 mg/kg, TIA oral bolus 25 mg/kg BW, chickens pretreated with AFB1 contaminated diet (20 µg/kg feed for 2 weeks), n = 8, mean ± SD, read-out: Cmax, Treatment
  Cmax: 142 ± 65.4 ng/mL
[2]; male, Ross 308, in vivo, po, 25 mg/kg, TIA oral bolus 25 mg/kg BW, chickens pretreated with AFB1 contaminated diet (20 µg/kg feed for 2 weeks), n = 8, mean ± SD, read-out: MRTlast, Treatment
  MRT last: 6.2 ± 1.8 h
[2]; male, Ross 308, in vivo, po, 25 mg/kg, TIA oral bolus 25 mg/kg BW, chickens pretreated with AFB1 contaminated diet (20 µg/kg feed for 2 weeks), n = 8, mean ± SD, read-out: T1/2λz, Treatment (converted)
  half-life: 6.3 ± 2.2 h
[2]; male, Ross 308, in vivo, po, 25 mg/kg, TIA oral bolus 25 mg/kg BW, chickens pretreated with AFB1 contaminated diet (20 µg/kg feed for 2 weeks), n = 8, mean ± SD, read-out: Tmax, Treatment
  Tmax: 1 ± 1.1 h
[3]
  IC50: 1.6 µM
[4]; microsomes
  IC50: > 40 µM
[4]
  IC50 for CYP3A4: 334.2 µM
[5]
  IC50: > 7.6 µM
[6]; microsomes
  IC50: > 40 µM
[6]
  IC50 for CYP2E1: 47.6 µM
[7]
  IC50: > 40 µM
[8]
  IC50: > 40 µM
[9]
  IC50: > 40 µM
[10]
  IC50: 7.6 µM
[11]
  adverse health effects in broilers: No significant adverse health effects

## COc1cc(Cc2cnc(N)nc2N)cc(OC)c1OC [Trimethoprim]
[12]
  inhibitory effect on CYP2C8: weak inhibitory effect

## CCN1CCN(c2cc3c(cc2F)c(=O)c(C(=O)O)cn3C2CC2)CC1 [enrofloxacin]
[13]
  inhibition of CYP3A activity: inhibit CYP3A activity
[14]
  increase of AUC0–∞: 17%
  increase of T1/2a: 17%
  increase of Tmax: 26%

## CCC[C@@H]1C[C@@H](C(=O)N[C@@H]([C@H]2O[C@H](SC)[C@H](O)[C@@H](O)[C@H]2O)[C@@H](C)O)N(C)C1 [lincomycin]
[15]
  inhibition of CYP1A, CYP2A, CYP2C, CYP2B, CYP2E and CYP3A: inhibits
